Measurements reported in US8664380B2, “Heterocyclic compound and use thereof” (Takeda Pharmaceutical Company Limited, priority 2008, dated 2014).
Structures can show the parent of a compound that is named as a salt.

Assays:
Human renin = target: T1, Human renin (Homo sapiens, UniProt P00797); assay: Human renin inhibition; angiotensin I formed from angiotensinogen quantified by EIA; details: for inhibition at 0.1 µM: read-out: Human renin inhibitory activity, inhibitory activity (%) at 0.1 μM
T1 sequence (P00797 67-406): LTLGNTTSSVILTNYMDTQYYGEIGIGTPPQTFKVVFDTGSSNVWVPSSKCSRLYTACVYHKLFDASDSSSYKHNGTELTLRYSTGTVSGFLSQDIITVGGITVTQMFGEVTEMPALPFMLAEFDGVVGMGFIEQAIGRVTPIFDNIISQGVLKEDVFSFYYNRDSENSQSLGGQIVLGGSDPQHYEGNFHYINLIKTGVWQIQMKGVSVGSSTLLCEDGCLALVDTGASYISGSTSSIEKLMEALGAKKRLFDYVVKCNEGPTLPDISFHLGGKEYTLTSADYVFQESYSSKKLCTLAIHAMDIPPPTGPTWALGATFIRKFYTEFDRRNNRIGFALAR
Method: As a substrate for renin activity measurement, the angiotensinogen mentioned in (5) above was used. 1 μl each of the test compound (containing 100% DMSO) was added to each well of a 384-well plate (ABgene). Renin was diluted with a buffer solution for reaction (20 mM sodium phosphate (pH 7.4)) to a concentration of 57 pM, and 14 μl each of the dilution was added to each well. The dilution was left to stand at 37° C. for 10 min, and then 5 μl of each of a 6 μM solution of substrate angiotensinogen was added to each well to initiate the reaction. […] The amount of angiotensin I produced by an enzyme reaction was quantified by Enzyme Immuno Assay (EIA) described below.
Anti-angiotensin I antibody (Peninsula Laboratories Inc.) diluted 5,000-fold with PBS was added to each well of a 384 well black plate (Nalge Nunc International Co., Ltd.) by 25 μl, and left standing overnight at 4° C. to immobilize the antibody in the plate. The antibody solution was removed, PBS solution (100 μl) containing 1% BSA was added to each well, and the mixture was left standing at room temperature for 2 hr for blocking. The blocking solution was removed, and each well was washed 5 times with 100 μl of 0.05% Tween20-PBS. […] Then, a biotinated angiotensin I solution (AnaSpec, 15 μl) prepared to 1.6 nM with a buffer [20 mM tris-hydrochloric acid (pH 7.4), 150 mM sodium chloride, 0.01% BSA, 0.05% Tween20] was added to each well, mixed with a plate mixer and left standing at room temperature for 1 hr. The solutions were removed from each well, and each well was washed 5 times with 100 μl of 0.05% Tween20-PBS. Horseradish peroxydase Streptavidin (PIERCE Biotechnology inc., 25 μl) diluted to 100 ng/ml with a buffer [20 mM tris-hydrochloric acid (pH 7.4), 150 mM sodium chloride, 0.1% BSA, 0.05% Tween 20] was added to each well and the mixture was left standing at room temperature for 30 min. The solutions were removed from each well, and each well was washed 5 times with 100 μl of 0.05% Tween20-PBS. SuperSignal ELISA femto Maximum Sensitivity Substrate (PIERCE Biotechnology Inc.) was added by 25 μl and luminescence intensity was measured by EnVision (Perkin Elmer Inc.). An analytical curve was drawn from the luminescence intensity of wells containing an angiotensin I standard solution, and the amount of angiotensin I produced by an enzyme reaction was calculated and used as an index of renin activity.

plasma renin activity = assay: Ex vivo plasma renin activity (PRA) test after oral administration; type: in vivo, Macaca fascicularis; details: Macaca fascicularis, po, 4 h, read-out: Macaca fascicularis plasma renin activity, PPA inhibitory activity (%, n = 3-7)
Method: Male macaca fascicularis was used. […] PRA was calculated by the following formula.

## COCCCCn1c(C(=O)N(CC(C)C)[C@@H]2CNC[C@H](C(=O)N3CCOCC3)C2)cc2ccccc21 [Example 3, 1-(4-methoxybutyl)-N-(2-methylpropyl)-N-[(3S,5R)-5-(morpholin-4-ylcarbonyl)piperidin-3-yl]-1H-indole-2-carboxamide hydrochloride]
Human renin
  inhibition at 0.1 µM: 96%

## COCCOCc1c(C(=O)N(CC(C)C)[C@@H]2CNC[C@H](C(=O)N3CCOCC3)C2)nc2ccccn12 [Example 4, 3-[(2-methoxyethoxy)methyl]-N-(2-methylpropyl)-N-[(3S,5R)-5-(morpholin-4-ylcarbonyl)piperidin-3-yl]imidazo[1,2-a]pyridine-2-carboxamide dihydrochloride]
Human renin
  inhibition at 0.1 µM: 96%

## COCCCCn1c(C(=O)N(CC(C)C)[C@@H]2CNC[C@H](C(=O)OCc3oc(=O)oc3C)C2)nc2ccccc21 [Example 7, (5-methyl-2-oxo-1,3-dioxol-4-yl)methyl (3R,5S)-5-[{[1-(4-methoxybutyl)-1H-benzimidazol-2-yl]carbonyl}(2-methylpropyl)amino]piperidine-3-carboxylate dihydrochloride]
Plasma renin activity
  inhibition at 1 mg/kg: 93%

## COCCCCn1c(C(=O)N(CC(C)C)[C@@H]2CNC[C@H](C(=O)N3CCOCC3)C2)nc2ccccc21 [Example 10, 1-(4-methoxybutyl)-N-(2-methylpropyl)-N-[(3S,5R)-5-(morpholin-4-ylcarbonyl)piperidin-3-yl]-1H-benzimidazole-2-carboxamide dihydrochloride]
Human renin; 0.1 μM test compound, human renin, substrate human angiotensinogen, 37° C. 30 min
  Human renin inhibitory activity, inhibitory activity (%) at 0.1 μM: 97%
Plasma renin activity
  inhibition at 1 mg/kg: 72%

## COCCCCn1c(C(=O)N(CC(C)C)[C@@H]2CNC[C@H](C(=O)N3CCOCC3)C2)nc2ccc(F)cc21 [Example 11, 6-fluoro-1-(4-methoxybutyl)-N-(2-methylpropyl)-N-[(3S,5R)-5-(morpholin-4-ylcarbonyl)piperidin-3-yl]-1H-benzimidazole-2-carboxamide dihydrochloride]
Plasma renin activity
  inhibition at 1 mg/kg: 89%

## COCCCCn1c(C(=O)N(CC(C)C)[C@@H]2CNC[C@H](C(=O)N3CCOCC3)C2)nc2ccc(F)cc21 [Example 12, 6-fluoro-1-(4-methoxybutyl)-N-(2-methylpropyl)-N-[(3S,5R)-5-(morpholin-4-ylcarbonyl)piperidin-3-yl]-1H-benzimidazole-2-carboxamide dihydrochloride]
Human renin
  inhibition at 0.1 µM: 97%

## COCCCCn1c(C(=O)N(CC(C)C)[C@@H]2CNC[C@H](C(=O)N3CCCC3)C2)nc2cc(F)ccc21 [Example 18, 5-fluoro-1-(4-methoxybutyl)-N-(2-methylpropyl)-N-[(3S,5R)-5-(pyrrolidin-1-ylcarbonyl)piperidin-3-yl]-1H-benzimidazole-2-carboxamide dihydrochloride]
Plasma renin activity
  inhibition at 1 mg/kg: 89%

## COCCCCn1c(C(=O)N(CC(C)C)[C@@H]2CNC[C@H](C(=O)N3CCCCC3)C2)nc2ccccc21 [Example 21, 1-(4-methoxybutyl)-N-(2-methylpropyl)-N-[(3S,5R)-5-(piperidin-1-ylcarbonyl)piperidin-3-yl]-1H-benzimidazole-2-carboxamide dihydrochloride]
Plasma renin activity
  inhibition at 1 mg/kg: 85%

## COCCCCn1c(C(=O)N(CC(C)C)[C@@H]2CNC[C@H](C(N)=O)C2)nc2ccccc21 [Example 25, N-[(3S,5R)-5-carbamoylpiperidin-3-yl]-1-(4-methoxybutyl)-N-(2-methylpropyl)-1H-benzimidazole-2-carboxamide dihydrochloride]
Human renin
  inhibition at 0.1 µM: 98%
Plasma renin activity
  inhibition at 1 mg/kg: 79%

## COCCCCn1c(C(=O)N(CC(C)C)[C@@H]2CNC[C@H](C(=O)O)C2)nc2ccccc21 [Example 33, (3R,5S)-5-[{[1-(4-methoxybutyl)-1H-benzimidazol-2-yl]carbonyl}(2-methylpropyl)amino]piperidine-3-carboxylic acid dihydrochloride]
Plasma renin activity
  inhibition at 1 mg/kg: 77%

## COCCCCn1c(C(=O)N(CC(C)C)[C@@H]2CNC[C@H](C(C)(C)O)C2)nc2ccccc21 [Example 38, N-[(3S,5R)-5-(1-hydroxy-1-methylethyl)piperidin-3-yl]-1-(4-methoxybutyl)-N-(2-methylpropyl)-1H-benzimidazole-2-carboxamide dihydrochloride]
Human renin
  inhibition at 0.1 µM: 98%

## COCCCCn1c(C(=O)N(CC(C)C)[C@@H]2CNC[C@H](CO)C2)nc2ccccc21 [Example 40, N-[(3S,5R)-5-(hydroxymethyl)piperidin-3-yl]-1-(4-methoxybutyl)-N-(2-methylpropyl)-1H-benzimidazole-2-carboxamide dihydrochloride]
Human renin
  inhibition at 0.1 µM: 97%
Plasma renin activity
  inhibition at 1 mg/kg: 75%

## COCCCCn1c(C(=O)N(CC(C)C)[C@@H]2CNC[C@H](C(C)O)C2)nc2ccccc21 (stereo partly drawn) [Example 42, N-[(3S,5R)-5-(1-hydroxyethyl)piperidin-3-yl]-1-(4-methoxybutyl)-N-(2-methylpropyl)-1H-benzimidazole-2-carboxamide dihydrochloride]
Plasma renin activity
  inhibition at 1 mg/kg: 70%

## COCCCCn1c(C(=O)N(CC(C)C)[C@@H]2CNC[C@H](C(O)COC)C2)nc2ccccc21 (stereo partly drawn) [Example 48, N-[(3S,5R)-5-(1-hydroxy-2-methoxyethyl)piperidin-3-yl]-1-(4-methoxybutyl)-N-(2-methylpropyl)-1H-benzimidazole-2-carboxamide dihydrochloride]
Human renin
  inhibition at 0.1 µM: 97%
Plasma renin activity
  inhibition at 1 mg/kg: 78%

## COCCCCn1c(C(=O)N(CC(C)C)[C@@H]2CNC[C@H](C(=O)N3CCOCC3)C2)nc2ccccc21 [Example 49, 1-(4-methoxybutyl)-N-(2-methylpropyl)-N-[(3S,5R)-5-(morpholin-4-ylcarbonyl)piperidin-3-yl]-1H-benzimidazole-2-carboxamide methanesulfonate]
Human renin
  inhibition at 0.1 µM: 97%

## COCCCCn1c(C(=O)N(CC(C)C)[C@@H]2CNC[C@H](C(=O)N3CCOCC3)C2)nc2ccc(OC)cc21 [Example 60, 6-methoxy-1-(4-methoxybutyl)-N-(2-methylpropyl)-N-{(3S,5R)-5-(morpholin-4-ylcarbonyl)piperidin-3-yl}-1H-benzimidazole-2-carboxamide dihydrochloride]
Plasma renin activity
  inhibition at 1 mg/kg: 85%

## COCCCCn1c(C(=O)N(CC(C)C)[C@@H]2CNC[C@H](C(=O)N3CCCC3)C2)nc2ccc(OC)cc21 [Example 62, 6-methoxy-1-(4-methoxybutyl)-N-(2-methylpropyl)-N-{(3S,5R)-5-(pyrrolidin-1-ylcarbonyl)piperidin-3-yl}-1H-benzimidazole-2-carboxamide dihydrochloride]
Plasma renin activity
  inhibition at 1 mg/kg: 75%

## COCCCCn1c(C(=O)N(CC(C)C)[C@@H]2CNC[C@H]([C@@H](O)COC)C2)nc2ccccc21 [Example 73-1, N-{(3S,5R)-5-[(1R)-1-hydroxy-2-methoxyethyl]piperidin-3-yl}-1-(4-methoxybutyl)-N-(2-methylpropyl)-1H-benzimidazole-2-carboxamide dihydrochloride]
Human renin
  inhibition at 0.1 µM: 96%
Plasma renin activity
  inhibition at 1 mg/kg: 77%

## COCCCCn1c(C(=O)N(CC(C)C)[C@@H]2CNC[C@H]([C@H](O)COC)C2)nc2ccccc21 [Example 73-2, N-{(3S,5R)-5-[(1S)-1-hydroxy-2-methoxyethyl]piperidin-3-yl}-1-(4-methoxybutyl)-N-(2-methylpropyl)-1H-benzimidazole-2-carboxamide dihydrochloride]
Human renin
  inhibition at 0.1 µM: 96%
Plasma renin activity
  inhibition at 1 mg/kg: 90%

## CCC(O)[C@H]1CNC[C@@H](N(CC(C)C)C(=O)c2nc3ccccc3n2CCCCOC)C1 (stereo partly drawn) [Example 76, N-[(3S, 5R)-5-(1-hydroxypropyl)piperidin-3-yl]-1-(4-methoxybutyl)-N-(2-methylpropyl)-1H-benzimidazole-2-carboxamide dihydrochloride]
Plasma renin activity
  inhibition at 1 mg/kg: 79%

## COCCCn1c(C(=O)N(CC(C)C)[C@@H]2CNC[C@H](C(=O)N3CCOCC3)C2)nc2ccccc21 [Example 85, 1-(3-methoxypropyl)-N-(2-methylpropyl)-N-[(3S, 5R)-5-(morpholin-4-ylcarbonyl)piperidin-3-yl]-1H-benzimidazole-2-carboxamide 1/2 sulfate]
Human renin
  inhibition at 0.1 µM: 97%

## CC(C)CN(C(=O)c1nc2ccccn2c1COc1ccccc1)[C@@H]1CNC[C@H](C(=O)N2CCOCC2)C1 [Example 117, N-(2-methylpropyl)-N-[(3S, 5R)-5-(morpholin-4-ylcarbonyl)piperidin-3-yl]-3-(phenoxymethyl)imidazo[1,2-a]pyridine-2-carboxamide dihydrochloride]
Human renin
  inhibition at 0.1 µM: 98%

## COCCCCc1c(C(=O)N(CC(C)C)[C@@H]2CNC[C@H](C(=O)N3CCOCC3)C2)nnn1-c1ccccc1F [Example 233, 1-(2-fluorophenyl)-5-(4-methoxybutyl)-N-(2-methylpropyl)-N-[(3S,5R)-5-(morpholin-4-ylcarbonyl)piperidin-3-yl]-1H-1,2,3-triazole-4-carboxamide hydrochloride]
Human renin
  inhibition at 0.1 µM: 97%
Plasma renin activity
  inhibition at 1 mg/kg: 67%

## COCCCCn1c(C(=O)N(CC2CC2)[C@@H]2CNC[C@H](C(=O)N3CCOCC3)C2)nc2ccccc21 [Example 253, N-(cyclopropylmethyl)-1-(4-methoxybutyl)-N-[(3S,5R)-5-(morpholin-4-ylcarbonyl)piperidin-3-yl]-1H-benzimidazole-2-carboxamide dihydrochloride]
Plasma renin activity
  inhibition at 1 mg/kg: 77%

## CCCN(C(=O)c1nc2ccccc2n1CCCCOC)[C@@H]1CNC[C@H](C(=O)N2CCOCC2)C1 [Example 255, 1-(4-methoxybutyl)-N-[(3S,5R)-5-(morpholin-4-ylcarbonyl)piperidin-3-yl]-N-propyl-1H-benzimidazole-2-carboxamide dihydrochloride]
Plasma renin activity
  inhibition at 1 mg/kg: 84%
